# Laboratory results published in patent US20240270762A1, “PENICILLIN-BINDING PROTEIN INHIBITORS” (priority 2021, published 2024).
# Read-outs that look alike come from different tables or passages of the source.
# What was measured:
# [1] = tested on: A. baumannii ATCC 19606; test: microbe, parasite or virus in culture; assay type: cell-based; settings: Acinetobacter baumannii
# [2] = biological target: A. baumannii PBP2 (Acinetobacter baumannii, UniProt D0C8Z9); test: Bocillin-FL competition binding via gel filtration, A. baumannii PBP2
# Chain of A. baumannii PBP2 (D0C8Z9 whole entry): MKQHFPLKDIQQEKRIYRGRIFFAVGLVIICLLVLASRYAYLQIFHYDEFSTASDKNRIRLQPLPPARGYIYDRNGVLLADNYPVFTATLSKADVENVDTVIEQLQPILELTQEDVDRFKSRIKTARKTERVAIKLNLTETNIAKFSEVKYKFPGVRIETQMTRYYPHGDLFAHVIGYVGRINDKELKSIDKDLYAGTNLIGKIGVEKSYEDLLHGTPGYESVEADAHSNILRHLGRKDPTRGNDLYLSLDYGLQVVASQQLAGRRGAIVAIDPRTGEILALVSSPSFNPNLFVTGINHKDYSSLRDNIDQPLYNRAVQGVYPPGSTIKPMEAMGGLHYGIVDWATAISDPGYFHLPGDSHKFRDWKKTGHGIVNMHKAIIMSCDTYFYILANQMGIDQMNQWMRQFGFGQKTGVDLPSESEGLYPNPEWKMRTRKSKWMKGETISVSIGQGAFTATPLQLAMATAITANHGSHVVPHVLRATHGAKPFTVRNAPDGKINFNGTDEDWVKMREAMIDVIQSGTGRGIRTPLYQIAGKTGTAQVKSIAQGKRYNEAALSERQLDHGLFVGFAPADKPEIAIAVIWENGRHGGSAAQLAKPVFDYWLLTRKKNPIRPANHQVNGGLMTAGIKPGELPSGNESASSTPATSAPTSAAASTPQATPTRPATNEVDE
# In short: (§1)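 Enzyme pre-incubated with increasing inhibitor concentrations, then Bocillin-FL added for 15 min further incubation. Bocillin-FL-bound PBP separated by gel filtration and fluorescence read. EC50 from fitting fraction PBP bound vs inhibitor concentration to a Hill-type equation (ymin, ymax, n).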
# [3] = tested on: P. aeruginosa CDC-0054; test: microbe, parasite or virus in culture; assay type: cell-based; settings: Pseudomonas aeruginosa, CDC0054, read-out: Minimum inhibitory concentration, P. aeruginosa CDC-0054
# [4] = tested on: B. thailandensis ATCC 700388; test: microbe, parasite or virus in culture; assay type: cell-based; settings: Burkholderia thailandensis, ATCC700388, read-out: Minimum inhibitory concentration (MIC), B. thailandensis ATCC 700388
# [5] = tested on: B. humptydooensis ATCC BAA-2767; test: microbe, parasite or virus in culture; assay type: cell-based; settings: Burkholderia humptydooensis, ATCCBAA2767, read-out: Minimum inhibitory concentration (MIC), B. humptydooensis ATCC BAA-2767
# [6] = tested on: A. baumannii CDC-0045; test: microbe, parasite or virus in culture; assay type: cell-based; settings: Acinetobacter baumannii
# [7] = tested on: P. aeruginosa ATCC 27853; test: microbe, parasite or virus in culture; assay type: cell-based; settings: Pseudomonas aeruginosa, ATCC27853, read-out: Minimum inhibitory concentration, P. aeruginosa ATCC 27853
# [8] = biological target: T1, A. baumannii PBP1a (Acinetobacter baumannii, UniProt A0ABX6CK30); test: Bocillin-FL competition binding via gel filtration, A. baumannii PBP1a; settings: competition binding assay using Bocillin-FL via gel filtration; read-out: A. baumannii PBP1a Potency
# T1 sequence (A0ABX6CK30 1-851): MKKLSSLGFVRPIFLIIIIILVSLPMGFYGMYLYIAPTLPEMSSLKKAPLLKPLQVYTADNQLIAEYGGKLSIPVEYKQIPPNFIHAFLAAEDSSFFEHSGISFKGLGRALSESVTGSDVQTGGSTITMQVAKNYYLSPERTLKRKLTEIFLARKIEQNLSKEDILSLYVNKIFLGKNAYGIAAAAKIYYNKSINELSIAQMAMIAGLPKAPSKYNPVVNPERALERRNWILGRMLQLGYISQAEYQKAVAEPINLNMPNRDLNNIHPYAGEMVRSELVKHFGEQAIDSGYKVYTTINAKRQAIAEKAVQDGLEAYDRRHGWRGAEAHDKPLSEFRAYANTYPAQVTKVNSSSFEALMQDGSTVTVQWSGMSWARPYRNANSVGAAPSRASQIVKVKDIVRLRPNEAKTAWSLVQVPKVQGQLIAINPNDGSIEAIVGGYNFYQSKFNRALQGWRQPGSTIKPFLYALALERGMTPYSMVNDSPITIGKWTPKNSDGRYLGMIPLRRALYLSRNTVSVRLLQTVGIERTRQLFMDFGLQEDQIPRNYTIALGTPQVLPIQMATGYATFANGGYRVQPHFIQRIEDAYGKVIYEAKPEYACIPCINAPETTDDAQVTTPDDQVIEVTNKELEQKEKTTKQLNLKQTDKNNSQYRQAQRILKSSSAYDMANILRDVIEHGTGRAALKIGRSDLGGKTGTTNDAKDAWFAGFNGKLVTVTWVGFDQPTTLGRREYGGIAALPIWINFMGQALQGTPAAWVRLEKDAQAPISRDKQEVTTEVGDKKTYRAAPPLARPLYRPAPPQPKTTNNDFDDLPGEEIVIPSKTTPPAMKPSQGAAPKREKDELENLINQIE
# In short: as §1
# [9] = tested on: P. aeruginosa CDC-0090; test: microbe, parasite or virus in culture; assay type: cell-based; settings: Pseudomonas aeruginosa, CDC0090, read-out: Minimum inhibitory concentration, P. aeruginosa CDC-0090
# [10] = tested on: A. baumannii ATCC 17978; test: microbe, parasite or virus in culture; assay type: cell-based; settings: Acinetobacter baumannii
# [11] = tested on: P. aeruginosa CDC-0110; test: microbe, parasite or virus in culture; assay type: cell-based; settings: Pseudomonas aeruginosa, CDC0110, read-out: Minimum inhibitory concentration, P. aeruginosa CDC-0110
# [12] = ATCC19606, read-out: MIC, A. baumannii ATCC 19606
# [13] = CDC0045, read-out: MIC, A. baumannii CDC-0045
# [14] = ATCC17978, read-out: MIC, A. baumannii ATCC 17978
# [15] = ATCC19606, read-out: Minimum inhibitory concentration (MIC), A. baumannii ATCC 19606
# [16] = CDC0045, read-out: Minimum inhibitory concentration (MIC), A. baumannii CDC-0045
# [17] = ATCC17978, read-out: Minimum inhibitory concentration (MIC), A. baumannii ATCC 17978
Structure (SMILES),"MIC [1, 12]",EC50 [2],MIC [3],MIC [4],MIC [5],"MIC [6, 13]",MIC [7],EC50 [8],MIC [9],"MIC [10, 14]","MIC [1, 15]","MIC [6, 16]","MIC [10, 17]",MIC [11]
"O=C(O)c1c(F)ccc2c1OB(O)[C@@H](NC(=O)C(NC(=O)N1CCN(C3CCN(C(=O)Nc4ccc(F)c(O)c4)CC3)C(=O)C1=O)c1cc(F)c(O)c(O)c1Cl)C2 (stereo partly drawn) [Example 480, (3R)-3-(2-(2-chloro-5-fluoro-3,4-dihydroxyphenyl)-2-(4-(1-((4-fluoro-3-hydroxyphenyl)carbamoyl)piperidin-4-yl)-2,3-dioxopiperazine-1-carboxamido)acetamido)-7-fluoro-2-hydroxy-3,4-dihydro-2H-benzo[e][1,2]oxaborinine-8-carboxylic acid]",< 1 µg/mL,10 to 50 µM,< 1 µg/mL,2 to 4 µg/mL,8 to 16 µg/mL,< 1 µg/mL,2 to 4 µg/mL,< 10 µM,2 to 4 µg/mL,< 1 µg/mL,–,–,–,–
"O=C(O)c1c(F)ccc2c1OB(O)[C@@H](NC(=O)C(NC(=O)N1CCN(C3CCN(C(=O)Nc4cc(O)cc(F)c4)CC3)C(=O)C1=O)c1cc(F)c(O)c(O)c1Cl)C2 (stereo partly drawn) [Example 481, (3R)-3-(2-(2-chloro-5-fluoro-3,4-dihydroxyphenyl)-2-(4-(1-((3-fluoro-5-hydroxyphenyl)carbamoyl)piperidin-4-yl)-2,3-dioxopiperazine-1-carboxamido)acetamido)-7-fluoro-2-hydroxy-3,4-dihydro-2H-benzo[e][1,2]oxaborinine-8-carboxylic acid]",< 1 µg/mL,< 10 µM,< 1 µg/mL,2 to 4 µg/mL,32 to 64 µg/mL,< 1 µg/mL,2 to 4 µg/mL,< 10 µM,2 to 4 µg/mL,< 1 µg/mL,–,–,–,–
"O=C(O)c1c(F)ccc2c1OB(O)[C@@H](NC(=O)[C@H](NC(=O)N1CCN(C3CCN(C(=O)Nc4cccc(O)c4Cl)CC3)C(=O)C1=O)c1cc(F)c(O)c(O)c1Cl)C2 [Example 482, (R)-3-((R)-2-(4-(1-((2-chloro-3-hydroxyphenyl)carbamoyl)piperidin-4-yl)-2,3-dioxopiperazine-1-carboxamido)-2-(2-chloro-5-fluoro-3,4-dihydroxyphenyl)acetamido)-7-fluoro-2-hydroxy-3,4-dihydro-2H-benzo[e][1,2]oxaborinine-8-carboxylic acid]",< 1 µg/mL,10 to 50 µM,< 1 µg/mL,< 1 µg/mL,2 to 4 µg/mL,< 1 µg/mL,2 to 4 µg/mL,10 to 50 µM,2 to 4 µg/mL,< 1 µg/mL,–,–,–,–
"O=C(O)c1c(F)ccc2c1OB(O)[C@@H](NC(=O)C(NC(=O)N1CCN(C3CCN(C(=O)Nc4cc(O)ccc4Cl)CC3)C(=O)C1=O)c1cc(F)c(O)c(O)c1Cl)C2 (stereo partly drawn) [Example 483, (3R)-3-(2-(2-chloro-5-fluoro-3,4-dihydroxyphenyl)-2-(4-(1-((2-chloro-5-hydroxyphenyl)carbamoyl)piperidin-4-yl)-2,3-dioxopiperazine-1-carboxamido)acetamido)-7-fluoro-2-hydroxy-3,4-dihydro-2H-benzo[e][1,2]oxaborinine-8-carboxylic acid]",< 1 µg/mL,10 to 50 µM,2 to 4 µg/mL,32 to 64 µg/mL,> 128 µg/mL,< 1 µg/mL,2 to 4 µg/mL,< 10 µM,2 to 4 µg/mL,< 1 µg/mL,–,–,–,–
"O=C(O)c1c(F)ccc2c1OB(O)[C@@H](NC(=O)C(NC(=O)N1CCN(C3CCN(C(=O)Nc4cc(O)cc(Cl)c4)CC3)C(=O)C1=O)c1cc(F)c(O)c(O)c1Cl)C2 (stereo partly drawn) [Example 484, (3R)-3-(2-(2-chloro-5-fluoro-3,4-dihydroxyphenyl)-2-(4-(1-((3-chloro-5-hydroxyphenyl)carbamoyl)piperidin-4-yl)-2,3-dioxopiperazine-1-carboxamido)acetamido)-7-fluoro-2-hydroxy-3,4-dihydro-2H-benzo[e][1,2]oxaborinine-8-carboxylic acid]",< 1 µg/mL,< 10 µM,2 to 4 µg/mL,32 to 64 µg/mL,> 128 µg/mL,< 1 µg/mL,2 to 4 µg/mL,< 10 µM,2 to 4 µg/mL,< 1 µg/mL,–,–,–,–
"O=C(O)c1c(F)ccc2c1OB(O)[C@@H](NC(=O)C(NC(=O)N1CCN(C3CCN(S(=O)(=O)Cc4cccc(O)c4)CC3)C(=O)C1=O)c1cc(F)c(O)c(O)c1Cl)C2 (stereo partly drawn) [Example 485, (3R)-3-(2-(2-chloro-5-fluoro-3,4-dihydroxyphenyl)-2-(4-(1-((3-hydroxybenzyl)sulfonyl)piperidin-4-yl)-2,3-dioxopiperazine-1-carboxamido)acetamido)-7-fluoro-2-hydroxy-3,4-dihydro-2H-benzo[e][1,2]oxaborinine-8-carboxylic acid]",< 1 µg/mL,< 10 µM,< 1 µg/mL,2 to 4 µg/mL,2 to 4 µg/mL,< 1 µg/mL,2 to 4 µg/mL,< 10 µM,< 1 µg/mL,< 1 µg/mL,–,–,–,–
"O=C(O)c1c(F)ccc2c1OB(O)[C@@H](NC(=O)C(NC(=O)N1CCN(C3CCN(C(=O)Nc4ccc(F)c(O)c4F)CC3)C(=O)C1=O)c1cc(F)c(O)c(O)c1Cl)C2 (stereo partly drawn) [Example 486, (3R)-3-(2-(2-chloro-5-fluoro-3,4-dihydroxyphenyl)-2-(4-(1-((2,4-difluoro-3-hydroxyphenyl)carbamoyl)piperidin-4-yl)-2,3-dioxopiperazine-1-carboxamido)acetamido)-7-fluoro-2-hydroxy-3,4-dihydro-2H-benzo[e][1,2]oxaborinine-8-carboxylic acid]",–,< 10 µM,< 1 µg/mL,2 to 4 µg/mL,2 to 4 µg/mL,–,2 to 4 µg/mL,< 10 µM,2 to 4 µg/mL,–,< 1 µg/mL,< 1 µg/mL,< 1 µg/mL,–
"O=C(O)c1c(F)ccc2c1OB(O)[C@@H](NC(=O)[C@H](NC(=O)N1CCN(S(=O)(=O)c3ccc(O)c(O)c3Cl)C1=O)c1ccc(P(=O)(O)O)cc1)C2 [Example 506, (R)-3-((R)-2-(3-((2-chloro-3,4-dihydroxyphenyl)sulfonyl)-2-oxoimidazolidine-1-carboxamido)-2-(4-phosphonophenyl)acetamido)-7-fluoro-2-hydroxy-3,4-dihydro-2H-benzo[e][1,2]oxaborinine-8-carboxylic acid]",–,–,< 1 µg/mL,< 1 µg/mL,< 1 µg/mL,–,< 1 µg/mL,–,< 1 µg/mL,–,< 1 µg/mL,< 1 µg/mL,< 1 µg/mL,< 1 µg/mL
"O=C(O)c1cccc2c1OB(O)[C@@H](NC(=O)[C@H](NC(=O)N1CCN(S(=O)(=O)c3ccc(O)c(O)c3Cl)C1=O)c1ccc(P(=O)(O)O)cc1)C2 [Example 509, (R)-3-((R)-2-(3-((2-chloro-3,4-dihydroxyphenyl)sulfonyl)-2-oxoimidazolidine-1-carboxamido)-2-(4-phosphonophenyl)acetamido)-2-hydroxy-3,4-dihydro-2H-benzo[e][1,2]oxaborinine-8-carboxylic acid]",–,–,< 1 µg/mL,< 1 µg/mL,< 1 µg/mL,–,< 1 µg/mL,–,< 1 µg/mL,–,< 1 µg/mL,< 1 µg/mL,< 1 µg/mL,< 1 µg/mL
